The nature of series [1]: physchem. An excerpt: The availability of the base electron pair is influenced by the steric environment presented by the groups (R′, R″ and CH2OH) bonded to the N and any electronic influence of those same groups.
The nature of series [2]: physchem. As to conditions: pH 8. The format is physicochemical. An excerpt: One of ordinary skill will recognize that log P is a guideline tool for assessing amine candidates, since actual migration to the clear coat layer or retention within the aqueous 1K basecoat layer will be dependent upon the nature of the solvent base of the clear coat and other factors including the influence of other additives commonly present in the composition of both layers.
In one aspect of the first embodiment, the secondary amine may be a dialkyl amine.

Experimental findings from patent publication US11583890B2, “Low temperature curing 1K basecoat and method to coat a substrate with the 1K basecoat” (BASF Coatings GmbH, priority 2017, dated 2023) are described below.

The structures appear in SMILES notation.

As usually defined, the pKa is the pH at which an ionisable group is half protonated. One may read the logP as a log measure of how a compound divides between an organic and an aqueous phase.

`CC(C)(N)CO` [AMP, 2-amino-2-methyl-1-propanol, reference compound]: the pKa in the series “physchem [1]” is 9.8. Regarding `CN(C)CCO` [DMEOA, N,N-dimethylethanolamine, reference compound], in the series “physchem [1]”, the pKa amounted to 9.2. In turn, `CCCCNCCCC` [di-n-butyl amine] had a lipophilicity (logP) in “physchem [2]” of around 2.8. Regarding `CCCNCCC` [di-n-propyl amine], in “physchem [2]”, the log partition coefficient (logP) was around 1.6. In the series “physchem [1]”, this compound had a pKa of 10.9.

Compound `CCNC(C)C` [ethyl isopropyl amine] yielded a logP in “physchem [2]” of 0.93.

`CCCN(CO)CCC` [methylol adduct of di-n-propyl amine] had a pKa in “physchem [1]” of 8.01. In “physchem [1]”, `CCN(CC)CO` [methylol adduct of diethylamine] registered a pKa of 8.9. In “physchem [1]”, `CC(C)N(CO)C(C)C` [methylol adduct of diisopropylamine] returned a pKa of 9.0.

As to `OCN1CCCCC1` [methylol adduct of piperidine], in “physchem [1]”, the pKa was 9.2. As to `OCN1CCCC1` [methylol adduct of pyrrolidine], the pKa in “physchem [1]” is reported as 8.9. For the compound `C1CCNC1` [pyrrolidine], the pKa in “physchem [1]” worked out at 10.6.
